Experimental data reported in PubChem BioAssay (NCI).
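Protocol summary: plate cells (96-well), add compound at 5 concentrations, incubate 48 h, interpolate endpoints linearly. GI50 marks 50% less growth. TGI denotes the concentration required for complete inhibition of growth.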

Legend:
Assay in all cases: NCI tumour cell line growth inhibition, 48 h; in the data active = GI50 below about 0.43 µM; inactive = the rest
[1] = test system: 786-0 renal
[2] = test system: A498 renal
[3] = test system: A549 NSCLC
[4] = test system: ACHN renal
[5] = test system: BT-549 breast
[6] = test system: CAKI-1 renal
[7] = test system: CCRF-CEM leukemia
[8] = test system: COLO 205 colon
[9] = test system: DU-145 prostate
[10] = test system: EKVX NSCLC
[11] = test system: HCC-2998 colon
[12] = test system: HCT-116 colon
[13] = test system: HCT-15 colon
[14] = test system: HL-60(TB) leukemia
[15] = test system: HOP-62 NSCLC
[16] = test system: HOP-92 NSCLC
[17] = test system: HS 578T breast
[18] = test system: HT29 colon
[19] = test system: IGROV1 ovarian
[20] = test system: K-562 leukemia
[21] = test system: KM12 colon
[22] = test system: LOX IMVI melanoma
[23] = test system: M14 melanoma
[24] = test system: MALME-3M melanoma
[25] = test system: MCF7 breast
[26] = test system: MDA-MB-231 breast
[27] = test system: MDA-MB-435
[28] = test system: MOLT-4 leukemia
[29] = test system: NCI-H226 lung
[30] = test system: NCI-H23 lung
[31] = test system: NCI-H460 lung
[32] = test system: NCI-H522 lung
[33] = test system: NCI/ADR-RES ovarian
[34] = test system: OVCAR-3 ovarian
[35] = test system: OVCAR-4 ovarian
[36] = test system: OVCAR-5 ovarian
[37] = test system: OVCAR-8 ovarian
[38] = test system: PC-3 prostate
[39] = test system: RPMI-8226 leukemia
[40] = test system: RXF 393 renal
[41] = test system: SF-268 CNS
[42] = test system: SF-295 CNS
[43] = test system: SF-539 CNS
[44] = test system: SK-MEL-2 melanoma
[45] = test system: SK-MEL-28 melanoma
[46] = test system: SK-MEL-5 melanoma
[47] = test system: SK-OV-3 ovarian
[48] = test system: SN12C renal
[49] = test system: SNB-19 CNS
[50] = test system: SNB-75 CNS
[51] = test system: SR leukemia
[52] = test system: SW-620 colon
[53] = test system: T-47D breast
[54] = test system: TK-10 renal
[55] = test system: U251 CNS
[56] = test system: UACC-257 melanoma
[57] = test system: UACC-62 melanoma
[58] = test system: UO-31 renal
[59] = test system: MDA-N

CC(C)(O)CS(=O)(=O)Nc1ccc2c(c1)CCN(C(=O)COc1cccnc1)C2
active: GI50 [8] 0.141 µM | GI50 [12] 0.0311 µM | GI50 [20] 0.0652 µM | GI50 [21] 0.277 µM | GI50 [23] 0.153 µM | GI50 [37] 0.0177 µM | GI50 [43] < 0.0224 µM | GI50 [48] 0.0677 µM | GI50 [52] 0.0495 µM
> 100 µM: TGI [1] | TGI [2] | TGI [3] | TGI [4] | TGI [5] | TGI [6] | TGI [7] | TGI [8] | TGI [9] | TGI [10] | TGI [11] | TGI [12] | TGI [13] | TGI [14] | TGI [15] | TGI [16] | TGI [17] | TGI [18] | TGI [19] | TGI [20] | TGI [21] | TGI [22] | TGI [23] | TGI [24] | TGI [25] | TGI [26] | TGI [27] | TGI [28] | TGI [29] | TGI [30] | TGI [31] | TGI [32] | TGI [33] | TGI [34] | TGI [35] | TGI [36] | TGI [37] | TGI [38] | TGI [39] | TGI [40] | TGI [41] | TGI [42] | TGI [43] | TGI [44] | TGI [45] | TGI [46] | TGI [47] | TGI [48] | TGI [49] | TGI [50] | TGI [51] | TGI [52] | TGI [53] | TGI [54] | TGI [55] | TGI [56] | TGI [57] | TGI [58]
inactive: GI50 [1] > 100 µM | GI50 [2] > 100 µM | GI50 [3] > 100 µM | GI50 [4] > 100 µM | GI50 [5] 2.33 µM | GI50 [6] > 92.4 µM | GI50 [7] 1.02 µM | GI50 [9] 0.618 µM | GI50 [10] > 100 µM | GI50 [11] > 26.5 µM | GI50 [13] 0.476 µM | GI50 [14] > 100 µM | GI50 [15] 99.4 µM | GI50 [16] 97.5 µM | GI50 [17] > 100 µM | GI50 [18] 0.743 µM | GI50 [19] > 84 µM | GI50 [22] > 100 µM | GI50 [24] > 100 µM | GI50 [25] 5.1 µM | GI50 [26] > 100 µM | GI50 [27] 0.518 µM | GI50 [28] > 100 µM | GI50 [29] > 100 µM | GI50 [30] > 100 µM | GI50 [31] 11.5 µM | GI50 [33] 1.47 µM | GI50 [34] > 100 µM | GI50 [35] > 100 µM | GI50 [38] 1.06 µM | GI50 [39] 0.799 µM | GI50 [40] > 100 µM | GI50 [41] > 100 µM | GI50 [42] > 61.6 µM | GI50 [44] > 100 µM | GI50 [45] > 100 µM | GI50 [46] > 100 µM | GI50 [47] > 100 µM | GI50 [50] > 100 µM | GI50 [51] > 45.7 µM | GI50 [53] > 35.2 µM | GI50 [54] > 100 µM | GI50 [55] > 62.7 µM | GI50 [56] > 100 µM | GI50 [57] > 100 µM | GI50 [58] > 100 µM

O=S1CCS(=O)CCS(=O)CC1 (stereo not drawn)
> 100 µM: TGI [1] | TGI [3] | TGI [5] | TGI [7] | TGI [8] | TGI [9] | TGI [10] | TGI [11] | TGI [12] | TGI [13] | TGI [14] | TGI [15] | TGI [16] | TGI [18] | TGI [19] | TGI [20] | TGI [21] | TGI [22] | TGI [23] | TGI [25] | TGI [26] | TGI [27] | TGI [59] | TGI [28] | TGI [30] | TGI [31] | TGI [32] | TGI [33] | TGI [34] | TGI [35] | TGI [36] | TGI [37] | TGI [38] | TGI [41] | TGI [42] | TGI [43] | TGI [45] | TGI [46] | TGI [47] | TGI [48] | TGI [49] | TGI [50] | TGI [51] | TGI [52] | TGI [53] | TGI [54] | TGI [55] | TGI [56] | TGI [57] | TGI [58]
